Source: patent US11077145B2, “Method for mass producing proteins in mesenchymal stem cells” (STEMMEDICARE CO., LTD., priority 2015, dated 2021)
Where “and” joins values, the source holds several entries; their conditions need not be identical. Equal entries are not always repeated. Marks after values point to notes of the source that are not given here.

What was measured:
C57BL/6 mice [1] = assay: Hair growth suppression model (dexamethasone), hair growth score and number of hair follicles; format: in vivo, mouse; parameters: hair growth score, Average: scale not given here
Method: A comparative test was performed to examine the hair growth effect of the mesenchymal stem cell conditioned medium of the present invention using C57BL/6 mice. After depilating the test animals, the depilatory was treated to induce them from the telogen (resting phase) to the anagen (growing phase), and then to suppress the growth of hair follicles, 0.1% of dexamethanone was transdermally administered for 5 days from 8 days after depilation repeatedly. Next, in order to compare the growth promoting effect of the test substance containing 3% of the mesenchymal stem cell conditioned medium of the present invention, the growth promoting effects were compared with the test substance by transdermally administered repeatedly of G1 (distilled water control), G2 (placebo control), G3 (test substance) and G4 (positive control-minoxidil 5%) for 8 days.

C57BL/6 mice [2] = assay: Anagen hair model, hair growth score and number of hair follicles; format: in vivo, mouse; parameters: hair growth score, Average: scale not given here
Method: A comparative test was performed to investigate the effect of hair growth promotion of the mesenchymal stem cell conditioned medium of the present invention using C57BL/6 mice. After induction of the hair follicles of the test animal from the telogen (resting phase) to the […] (growing phase) and depilatione, in order to compare the growth promoting effect of the test substance containing 3% of the mesenchymal stem cell conditioned medium of the present invention, G1 (distilled water control), G2 (placebo control), G3 (test substance) and G4 (positive control-minoxidil 5%) were transdermally administered repeatedly for 14 days respectively, and the hair growth promoting effects were compared with the test substance.

[3] = individual animal average of 3 areas
[4] = individual animal, female, 8th day of administration
[5] = individual animal, histopathological examination
[6] = individual animal, female, 13th day

Question: Which results are given for `Nc1cc(N2CCCCC2)nc(N)[n+]1[O-]` [G4, Minoxidil]?
Answer: number of hair follicles, Total Average (C57BL/6 mice [1]; group average, transdermal for 8 days): 66.37; hair growth score, Total Average (C57BL/6 mice [1]; group average, transdermal for 8 days, 8th day): 2.68 points; number of hair follicles, Average (C57BL/6 mice [1]; [3]): 87.67 and 92.33 and 71.00 and 36.33 and 108.33 and 61.33 and 45.33 and 29.67 and 36.00 and 95.67; hair growth score, Average (C57BL/6 mice [1]; individual animal average, 8th day of administration): 3.00 (3×) and 1.75 (2×) and 2.25 and 2.75 (2×) and 2.50 and 4.00; hair growth score, Score 1st (C57BL/6 mice [1]; [4]): 2 (40~59% (2)) (6×) and 1 (20~39% (1)) (2×) and 3 (60~79% (3)) and 4 (80~100% (4)); hair growth score, Score 2nd (C57BL/6 mice [1]; [4]): 2 (40~59% (2)) (7×) and 1 (20~39% (1)) (2×) and 4 (80~100% (4)); hair growth score, Score 3rd (C57BL/6 mice [1]; [4]): 4 (80~100% (4)) (4×) and 2 (40~59% (2)) (3×) and 3 (60~79% (3)) (2×) and 1 (20~39% (1)); hair growth score, Score 4th (C57BL/6 mice [1]; [4]): 4 (80~100% (4)) (7×) and 3 (60~79% (3)) (3×); number of hair follicles, Area 1 (C57BL/6 mice [1]; [5]): 70 and 97 and 66 and 53 and 114 and 65 and 78 and 46 and 37 and 95; number of hair follicles, Area 2 (C57BL/6 mice [1]; [5]): 96 and 87 (2×) and 65 and 37 (2×) and 108 and 52 and 19 and 48; number of hair follicles, Area 3 (C57BL/6 mice [1]; [5]): 97 and 93 and 82 and 19 and 103 and 67 and 21 and 24 and 23 and 105; hair growth score, Average (C57BL/6 mice [2]; 15th day, female C57BL/6 mice, average of the four scores per animal): 4 (4×) and 3.75 (3×) and 3.5 (3×); hair growth score, Total Average (C57BL/6 mice [2]; 15th day, female C57BL/6 mice, group average, transdermal administration for 14 days): 3.78**; hair growth score, Score 1st (C57BL/6 mice [2]; 15th day, female C57BL/6 mice, individual animal, 1st score): 4 (80~100% (4)) (9×) and 3 (60~79% (3)); hair growth score, Score 2nd (C57BL/6 mice [2]; 15th day, female C57BL/6 mice, individual animal, 2nd score): 4 (80~100% (4)) (5×) and 3 (60~79% (3)) (5×); hair growth score, Score 3rd (C57BL/6 mice [2]; 15th day, female C57BL/6 mice, individual animal, 3rd score): 4 (80~100% (4)); hair growth score, Score 4th (C57BL/6 mice [2]; 15th day, female C57BL/6 mice, individual animal, 4th score): 4 (80~100% (4)) (7×) and 3 (60~79% (3)) (3×); hair growth score, Total Average (C57BL/6 mice [2]; group average, 13th day): 3.27 point; hair growth score, Total Average (C57BL/6 mice [2]; group average, 15th day): 3.78 point; number of hair follicles, Total Average (C57BL/6 mice [2]; group average, transdermal for 14 days): 104.70; number of hair follicles, Average (C57BL/6 mice [2]; [3]): 191.33 and 107.67 and 69.00 and 149.67 and 54.67 and 82.67 and 72.33 and 130.33 and 138.67 and 50.67; hair growth score, Average (C57BL/6 mice [2]; individual animal average, 13th day): 3.67 (2×) and 4.00 (2×) and 3.33 (2×) and 3.00 and 2.33 and 2.67 (2×); hair growth score, Score 1st (C57BL/6 mice [2]; [6]): 3 (60~79% (3)) (4×) and 4 (80~100% (4)) (2×) and 2 (40~59% (2)) (4×); hair growth score, Score 2nd (C57BL/6 mice [2]; [6]): 3 (60~79% (3)) (5×) and 4 (80~100% (4)) (2×) and 1 (20~39% (1)) (2×) and 2 (40~59% (2)); hair growth score, Score 3rd (C57BL/6 mice [2]; [6]): 4 (80~100% (4)) (6×) and 3 (60~79% (3)) (4×); hair growth score, Score 4th (C57BL/6 mice [2]; [6]): 4 (80~100% (4)) (5×) and 3 (60~79% (3)) (5×); number of hair follicles, Area 1 (C57BL/6 mice [2]; [5]): 232 and 48 and 92 and 135 and 45 and 90 and 71 and 149 and 121 and 53; number of hair follicles, Area 2 (C57BL/6 mice [2]; [5]): 209 and 135 and 55 and 155 and 50 and 94 and 79 and 126 and 164 and 41; number of hair follicles, Area 3 (C57BL/6 mice [2]; [5]): 133 and 140 and 60 and 159 and 69 and 64 and 67 and 116 and 131 and 58
